# In US20250115591A1, “NOVEL SULFONAMIDE CARBOXAMIDE COMPOUNDS” (INFLAZOME LIMITED, priority 2017, published 2025):
# Structures can show the parent of a compound that is named as a salt.
# Target: NLRP3 (Homo sapiens (Human), UniProt Q96P20)
# Assay: THP-1 cells pyroptosis assay (LPS + nigericin, resazurin read-out)
# Assay type: cell-based
# Details: 1 μg/ml LPS, 5 μM nigericin
# Procedure: THP-1 cells (ATCC #TIB-202) were grown in RPMI containing L-glutamine (Gibco 15 #11835) supplemented with 1 mM sodium pyruvate (Sigma #S8636) and penicillin (100 units/ml)/streptomycin (0.1 mg/ml) (Sigma #P4333) in 10% Fetal Bovine Serum (FBS) (Sigma #F0804). The cells were routinely passaged and grown to confluency (˜10^6 cells/ml). On the day of the experiment, THP-1 cells were harvested and resuspended into RPMI medium (without FBS). The cells were then counted and viability (>90%) checked by Trypan blue (Sigma #T8154). Appropriate dilutions were made to give a concentration of 625,000 cells/ml. To this diluted cell solution was added LPS (Sigma #[4524) to give a 1 μg/ml Final Assay Concentration (FAC). 40μ of the final preparation was aliquoted into each well of a 96-well plate. The plate thus prepared was used for compound screening.
# The following method step-by-step assay was followed for compound screening. • 1. Seed THP-1 cells (25,000 cells/well) containing 1.0 μg/ml LPS in 40μ of RPMI medium (without FBS) in 96-well, black walled, clear bottom cell culture plates coated with poly-D-lysine (VWR #734-0317) • 2. Add 5 μl compound (8 points half-log dilution, with […]) or vehicle (DMSO 0.1% FAC) to the appropriate wells • 3. Incubate for 3 hrs at 37° C. and 5% CO2 • 4. Add 5 μl nigericin (Sigma #N7143) (FAC 5 μM) to all wells • 5. Incubate for 1 hr at 37° C. and 5% CO2 • 6. At the end of the incubation period, spin plates at 300×g for 3 mins and remove supernatant • 7. Then add 50 μl of resazurin (Sigma #R7017) (FAC 100 μM resazurin in RPMI medium without FBS) and incubate plates for a further 1-2 hrs at 37° C. and 5% CO2 • 8. Plates were read in an Envision reader at Ex 560 nm and Em 590 nm • 9. IC50 data is fitted to a non-linear regression equation (log inhibitor vs response-variable slope 4-parameters)
# NLRP3, sequence (Q96P20 whole entry): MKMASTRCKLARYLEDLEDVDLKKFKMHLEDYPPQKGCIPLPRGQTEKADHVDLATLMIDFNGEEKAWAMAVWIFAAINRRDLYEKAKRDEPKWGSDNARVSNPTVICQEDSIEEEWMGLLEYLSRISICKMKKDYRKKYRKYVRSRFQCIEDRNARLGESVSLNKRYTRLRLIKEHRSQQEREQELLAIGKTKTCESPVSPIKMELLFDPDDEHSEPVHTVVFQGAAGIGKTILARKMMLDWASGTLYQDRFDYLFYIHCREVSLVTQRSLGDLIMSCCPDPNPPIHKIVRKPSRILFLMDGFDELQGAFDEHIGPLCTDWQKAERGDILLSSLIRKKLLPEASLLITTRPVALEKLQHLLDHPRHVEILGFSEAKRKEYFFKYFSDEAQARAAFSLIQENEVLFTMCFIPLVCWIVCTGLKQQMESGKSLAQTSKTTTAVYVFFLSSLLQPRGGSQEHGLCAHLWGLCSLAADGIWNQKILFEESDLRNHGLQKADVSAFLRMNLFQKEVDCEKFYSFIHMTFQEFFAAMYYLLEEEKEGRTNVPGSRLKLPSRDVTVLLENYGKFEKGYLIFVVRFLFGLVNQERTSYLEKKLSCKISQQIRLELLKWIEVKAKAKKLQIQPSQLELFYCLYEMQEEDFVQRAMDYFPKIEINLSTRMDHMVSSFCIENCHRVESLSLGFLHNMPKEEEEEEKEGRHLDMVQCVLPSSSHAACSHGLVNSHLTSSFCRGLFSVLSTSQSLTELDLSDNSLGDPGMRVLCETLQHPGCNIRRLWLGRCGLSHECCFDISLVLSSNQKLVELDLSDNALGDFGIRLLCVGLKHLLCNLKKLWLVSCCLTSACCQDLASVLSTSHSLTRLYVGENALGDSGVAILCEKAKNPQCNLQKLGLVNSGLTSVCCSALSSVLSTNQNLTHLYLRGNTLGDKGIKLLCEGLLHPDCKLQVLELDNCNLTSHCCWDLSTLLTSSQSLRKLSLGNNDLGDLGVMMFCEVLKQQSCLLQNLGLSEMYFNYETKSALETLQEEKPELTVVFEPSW
row,Structure (SMILES),IC50
1,"CC(C)N1CC(N2CCC(S(=O)(=O)NC(=O)Nc3c4c(cc5c3CCC5)CCC4)CC2)C1 [Example 62, N-((1,2,3,5,6,7-Hexahydro-s-indacen-4-yl)carbamoyl)-1-(1-isopropylazetidin-3-yl)piperidine-4-sulfonamide, potassium salt]",1000 to 10000 nM
2,"COCCN1CC(S(=O)(=O)NC(=O)Nc2c3c(cc4c2CCC4)CCC3)C1 [Example 88, N-((1,2,3,5,6,7-Hexahydro-s-indacen-4-yl)carbamoyl)-1-(2-methoxyethyl)azetidine-3-sulfonamide, potassium salt]",< 1000 nM
3,"CN1CCC(S(=O)(=O)NC(=O)Nc2c3c(cc4c2CCC4)CCC3)C1 (stereo not drawn) [Example 36, N-((1,2,3,5,6,7-Hexahydro-s-indacen-4-yl)carbamoyl)-1-methylpyrrolidine-3-sulfonamide, potassium salt]",1000 to 10000 nM
4,"CC(C)c1cc(F)cc(-c2ccnc(C#N)c2)c1NC(=O)NS(=O)(=O)C1CN(C2CCC2)C1 [Example 161, N-((2-(2-Cyanopyridin-4-yl)-4-fluoro-6-isopropylphenyl)carbamoyl)-1-cyclobutylazetidine-3-sulfonamide]",1000 to 10000 nM
5,"O=C(Nc1c2c(cc3c1CCC3)CCC2)NS(=O)(=O)C1CCN(C2COC2)CC1 [Example 20, N-((1,2,3,5,6,7-Hexahydro-s-indacen-4-yl)carbamoyl)-1-(oxetan-3-yl)piperidine-4-sulfonamide, potassium salt]",1000 to 10000 nM
6,"O=C(Nc1c2c(cc3c1CCC3)CCC2)NS(=O)(=O)C1CCN(C2CC2)CC1 [Example 23, 1-Cyclopropyl-N-((1,2,3,5,6,7-hexahydro-s-indacen-4-yl)carbamoyl)piperidine-4-sulfonamide, potassium salt]",1000 to 10000 nM
7,"COC1CN(C)CC1S(=O)(=O)NC(=O)Nc1c2c(cc3c1CCC3)CCC2 (stereo not drawn) [Example 149, N-((1,2,3,5,6,7-Hexahydro-s-indacen-4-yl)carbamoyl)-4-methoxy-1-methylpyrrolidine-3-sulfonamide, potassium salt]",1000 to 10000 nM
8,"CCCN1CCC(S(=O)(=O)NC(=O)Nc2c3c(cc4c2CCC4)CCC3)CC1 [Example 19, N-((1,2,3,5,6,7-Hexahydro-s-indacen-4-yl)carbamoyl)-1-propyl piperidine-4-sulfonamide, potassium salt]",1000 to 10000 nM
9,"O=C(Nc1c2c(cc3c1CCC3)CCC2)NS(=O)(=O)C1CN(CCC2CCOC2)C1 (stereo not drawn) [Example 142, N-((1,2,3,5,6,7-Hexahydro-s-indacen-4-yl)carbamoyl)-1-(2-(tetrahydrofuran-3-yl)ethyl)azetidine-3-sulfonamide, potassium salt]",< 1000 nM
10,"CCN1CC(S(=O)(=O)NC(=O)Nc2c3c(cc4c2CCC4)CCC3)Cc2ccccc21 (stereo not drawn) [Example 66, 1-Ethyl-N-((1,2,3,5,6,7-hexahydro-s-indacen-4-yl)carbamoyl)-1,2,3,4-tetrahydroquinoline-3-sulfonamide, potassium salt]",< 1000 nM
11,"CCC(=O)N1CCC(S(=O)(=O)NC(=O)Nc2c3c(cc4c2CCC4)CCC3)CC1 [Example 10, N-((1,2,3,5,6,7-Hexahydro-s-indacen-4-yl)carbamoyl)-1-propionylpiperidine-4-sulfonamide, potassium salt]",1000 to 10000 nM
12,"CN1CC(N2CCC(S(=O)(=O)NC(=O)Nc3c4c(cc5c3CCC5)CCC4)CC2)C1 [Example 80, N-((1,2,3,5,6,7-Hexahydro-s-indacen-4-yl)carbamoyl)-1-(1-methylazetidin-3-yl)piperidine-4-sulfonamide, potassium salt]",1000 to 10000 nM
13,"CC(C)N1CC2(CC(S(=O)(=O)NC(=O)Nc3c4c(cc5c3CCC5)CCC4)C2)C1 [Example 63, N-((1,2,3,5,6,7-Hexahydro-s-indacen-4-yl)carbamoyl)-2-isopropyl-2-azaspiro[3.3]heptane-6-sulfonamide, potassium salt]",1000 to 10000 nM
14,"Cn1cc(CN2CC(S(=O)(=O)NC(=O)Nc3c4c(cc5c3CCC5)CCC4)C2)ccc1=O [Example 140, N-((1,2,3,5,6,7-Hexahydro-s-indacen-4-yl)carbamoyl)-1-((1-methyl-6-oxo-1,6-dihydropyridin-3-yl)methyl)azetidine-3-sulfonamide, potassium salt]",< 1000 nM
15,"COCC(=O)N1CCC(S(=O)(=O)NC(=O)Nc2c3c(cc4c2CCC4)CCC3)CC1 [Example 12, N-((1,2,3,5,6,7-Hexahydro-s-indacen-4-yl)carbamoyl)-1-(2-methoxyacetyl)piperidine-4-sulfonamide, potassium salt]",1000 to 10000 nM
16,"CCN1CCC(N2CCC(S(=O)(=O)NC(=O)Nc3c4c(cc5c3CCC5)CCC4)C2)CC1 (stereo not drawn) [Example 44, 1-(1-Ethylpiperidin-4-yl)-N-((1,2,3,5,6,7-hexahydro-s-indacen-4-yl)carbamoyl)pyrrolidine-3-sulfonamide, potassium salt]",1000 to 10000 nM
17,"C[Si](C)(C)CN1CC(S(=O)(=O)NC(=O)Nc2c3c(cc4c2CCC4)CCC3)C1 [Example 136, N-((1,2,3,5,6,7-Hexahydro-s-indacen-4-yl)carbamoyl)-1-((trimethylsilyl)methyl)azetidine-3-sulfonamide, potassium salt]",1000 to 10000 nM
18,"O=C(Nc1c2c(cc3c1CCC3)CCC2)NS(=O)(=O)C1CN(C(CF)CF)C1 [Example 86, 1-(1,3-Difluoropropan-2-yl)-N-((1,2,3,5,6,7-hexahydro-s-indacen-4-yl)carbamoyl)azetidine-3-sulfonamide, potassium salt]",1000 to 10000 nM
19,"CC(C)c1cc(F)cc(-c2cccnc2)c1NC(=O)NS(=O)(=O)C1CN(C(C)C)C1 [Example 175, N-((4-Fluoro-2-isopropyl-6-(pyridin-3-yl)phenyl)carbamoyl)-1-isopropylazetidine-3-sulfonamide]",< 1000 nM
20,"CN(C)C(=O)N1CCC(S(=O)(=O)NC(=O)Nc2c3c(cc4c2CCC4)CCC3)C1 (stereo not drawn) [Example 40, 3-(N-((1,2,3,5,6,7-Hexahydro-s-indacen-4-yl)carbamoyl)sulfamoyl)-N,N-dimethylpyrrolidine-1-carboxamide]",1000 to 10000 nM
21,"CC(C)(C)[Si](C)(C)OCCN1CC(S(=O)(=O)NC(=O)Nc2c3c(cc4c2CCC4)CCC3)C1 [Example 151, 1-(2-((tert-Butyldimethylsilyl)oxy)ethyl)-N-((1,2,3,5,6,7-hexahydro-s-indacen-4-yl)carbamoyl)azetidine-3-sulfonamide, potassium salt]",< 1000 nM
22,"CCN1CC(OC)C(S(=O)(=O)NC(=O)Nc2c3c(cc4c2CCC4)CCC3)C1 (stereo not drawn) [Example 150, 1-Ethyl-N-((1,2,3,5,6,7-hexahydro-s-indacen-4-yl)carbamoyl)-4-methoxypyrrolidine-3-sulfonamide, potassium salt]",< 1000 nM
23,"CC1(C)CC(N2CC(S(=O)(=O)NC(=O)Nc3c4c(cc5c3CCC5)CCC4)C2)C1 [Example 119, 1-(3,3-Dimethylcyclobutyl)-N-((1,2,3,5,6,7-hexahydro-s-indacen-4-yl)carbamoyl)azetidine-3-sulfonamide, potassium salt]",1000 to 10000 nM
24,"CCN1CCC(N2CCC(S(=O)(=O)NC(=O)Nc3c4c(cc5c3CCC5)CCC4)CC2)CC1 [Example 48, 1′-Ethyl-N-((1,2,3,5,6,7-hexahydro-s-indacen-4-yl)carbamoyl)-[1,4′-bipiperidine]-4-sulfonamide, potassium salt]",1000 to 10000 nM
